Compound in this assay: COc1cc(N2CCC(N3CCN(C)CC3)CC2)ccc1Nc1ncc(Cl)c(Nc2ccccc2S(=O)(=O)C(C)C)n1 [NVP-TAE684]
In words: relative viability (nuclei count vs DMSO), 5 days (fraction); higher = more cells survive. In a few lines:
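Five library-drug doses spaced by √10 were pinned onto vehicle-anchored 1536-well plates of lung cancer cell lines that had been kept overnight at 37 °C. Cells went 5 days without medium change, then were fixed, permeabilised and Hoechst-stained together, imaged at 4× and counted by MetaXpress. Viability is the ratio of treated-well to vehicle-well nuclei, taken as a median over plates. Plates required control CV below 25% and at least one doubling.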

For UMC-11, the relative viability is 1.04 (0.2 µM), 0.876 (0.6325 µM) and 0.465 (2 µM).

These data come from the supplement of paper PMC10307832.
